3 compounds from PMC9603588, “Structural Basis of Peptide-Based Antimicrobial Inhibition of a Resistance-Nodulation-Cell Division Multidrug Efflux Pump” (Microbiology Spectrum, 2022) can be followed below.

Assay [1] relates to E. coli BL21(DE3) ΔacrB/pACYCΩmtrCDE. Briefly: MIC of antibiotics for E. coli BL21(DE3) ΔacrB/pACYCΩmtrCDE. The format is cell-based. To be noted: Escherichia coli.
A further assay relates to N. subflava ATCC 49275. Briefly: MIC of Nov for N. subflava. The format is cell-based. The note with it: Neisseria subflava, ATCC49275.
For another assay, the system named is E. coli K-12 ΔtolC::kan. Briefly: MIC of Nov for E. coli K-12 ΔtolC::kan. The format is cell-based. The note with it: Escherichia coli, read-out: MIC of Nov.
In the next assay the test system is E. coli K-12. Briefly: MIC of Nov for E. coli K-12. Format: cell-based. To be noted: Escherichia coli, K12.
In assay [2] the test system is S. enterica subsp. enterica. In words: MIC of Nov for S. enterica subsp. enterica. Format: cell-based. The note with it: Salmonella enterica.
A further assay deals with P. aeruginosa. Briefly: MIC of Nov for P. aeruginosa. Format: cell-based. The note with it: Pseudomonas aeruginosa.
The subject of the next assay is N. gonorrhoeae FA19. Briefly: Nov MIC against gonococci by agar dilution, FA19. The format is cell-based. The note with it: Neisseria gonorrhoeae, strain FA19. The protocol: (§1) The MICs for Nov were determined by agar dilution as described previously ([53]). The construction of the mtrD::kan transformants was described previously ([3], [61]); note that WHO X was originally termed H041.

Assay [3] has as its system N. gonorrhoeae FA19 mtrD::kan. In words: Nov MIC against gonococci by agar dilution, FA19 mtrD::kan. The format is cell-based. To be noted: Neisseria gonorrhoeae. The protocol: as §1
The test system of another assay is N. gonorrhoeae WHO X. In words: Nov MIC against gonococci by agar dilution, WHO X. Format: cell-based. The note with it: Neisseria gonorrhoeae, strain WHO X. The protocol:
as §1

The subject of assay [4] is N. gonorrhoeae WHO X mtrD::kan. In words: Nov MIC against gonococci by agar dilution, WHO X mtrD::kan. The note with it: Neisseria gonorrhoeae. Format: cell-based. Here is the method: as §1
Assay [5] deals with MtrD_(CR103) multidrug efflux pump (MtrD from N. gonorrhoeae strain CR.103) (Neisseria gonorrhoeae strain CR.103) (UniProt Q51073). In words: cryo-EM structure; 2 μM MtrD_(CR103)-nanodisc sample incubated with 100 μM CASP, 20 μM Col or 50 μM LL for 2 h; single-particle cryo-EM.

In brackets after ≈: the same amount, converted by molar mass. Like-named read-outs stand apart in the source and are kept apart here.

As for `CO[C@@H]1[C@@H](OC(N)=O)[C@@H](O)[C@H](Oc2ccc3c(O)c(NC(=O)c4ccc(O)c(CC=C(C)C)c4)c(=O)oc3c2C)OC1(C)C` [Nov, novobiocin], the MIC was 125 µg/mL in assay [1] (read-out: MIC for Nov); 1 µg/mL in the assay on N. subflava ATCC 49275; 4 µg/mL in the assay with E. coli K-12 ΔtolC::kan; over 128 µg/mL with E. coli K-12; 512 µg/mL in assay [2]; over 1000 µg/mL in the assay on P. aeruginosa. Besides, the minimum inhibitory concentration (MIC) is 0.25 µg/mL (≈ 0.408 µM) in the assay with N. gonorrhoeae FA19, 0.06 µg/mL (≈ 0.0979 µM) in assay [3], 1 µg/mL (≈ 1.63 µM) against N. gonorrhoeae WHO X and 0.25 µg/mL (≈ 0.408 µM) in [4].
With `[H]/N=C(/N)N[C@H]1[C@H](O)[C@@H](O)[C@H](O[C@@H]2O[C@@H](C)[C@](O)(C=O)[C@H]2O[C@@H]2O[C@@H](CO)[C@H](O)[C@@H](O)[C@@H]2NC)[C@@H](N/C(N)=N\[H])[C@@H]1O` [streptomycin], the MIC in assay [1] (read-out: MIC of streptomycin) is 8 µg/mL.
Compound “MtrD_(CR103) multidrug efflux pump (MtrD from N. gonorrhoeae strain CR.103) (from UniProt Q51073 1-1067) (natural protein)” came in with a stoichiometry N in [5] of 3.
